In US20200268864A1, “CANCER VACCINE COMPOSITIONS AND METHODS FOR USING SAME TO TREAT CANCER” (Dana-Farber Cancer Institute, Inc., priority 2017, published 2020):
Entries after “also recorded” stand apart in the source; their conditions may differ.

How the values were obtained:
PD-L1 on PBM tumor cells = assay: PD-L1 expression on PBM tumor cells (RT-qPCR, flow cytometry); parameters: species or system mouse; settings: PBM tumors in vivo and cultured PBM cells
Description: Tumors were first mechanically disrupted by chopping, then chemically digested in collagenase buffer (8 mL DMEM, 0.1 mL 1M HEPES, 0.5 mL FBS, 0.2 mL Pen/Strep, 1 m, 10× collagenase/hyaluronidase (Stemcell Technologies), 0.2 mL of 1 mg/mL DNase I (Stemcell Technologies) at 37° C. for 45 min. Single-cell suspensions of spleen and lymph nodes were obtained by mashed through a 70 um strainer using the plunger of a 3 mL or 5 mL syringe. Single cells suspensions were treated with red blood lysis buffer (4 mL NH4Cl+1 mL PBS with 2% calf serum) and washed with FACS buffer. Single cells suspensions were incubated with LIVE/DEAD Fixable Aqua Dead Cell Stain (Life Technologies, Cat # L34965) for 30 min and then blocked with anti-CD16/32 (BioLegend, clone 93) for 20 min on ice. Samples were then incubated with appropriate antibodies for 30 min. on ice. The Foxp3 staining buffer set (eBioscience, Cat #00-5523-00) was applied for intracellular markers staining. For the intracellular cytokine analysis, cells were stimulated with Leukocyte Activation Cocktail (BD Biosciences, Cat #550583) at 37° C. for 5 hours prior to FACS staining. […] Flow cytometry was performed on an LSR II (BD Biosciences) or LSRFortessa™ HTS (BD Biosciences) at the DFCI flow cytometry core facility, and all the data were analyzed using FlowJo software. […]

PPM tumor bearing mice = assay: Flow cytometry of tumor-infiltrating immune cells in PPM tumors; settings: mouse, in vivo
Description: Tumors were first mechanically disrupted by chopping, then chemically digested in collagenase buffer (8 mL DMEM, 0.1 mL 1M HEPES, 0.5 mL FBS, 0.2 mL Pen/Strep, 1 m, 10× collagenase/hyaluronidase (Stemcell Technologies), 0.2 mL of 1 mg/mL DNase I (Stemcell Technologies) at 37° C. for 45 min. Single-cell suspensions of spleen and lymph nodes were obtained by mashed through a 70 um strainer using the plunger of a 3 mL or 5 mL syringe. Single cells suspensions were treated with red blood lysis buffer (4 mL NH4Cl+1 mL PBS with 2% calf serum) and washed with FACS buffer. Single cells suspensions were incubated with LIVE/DEAD Fixable Aqua Dead Cell Stain (Life Technologies, Cat # L34965) for 30 min and then blocked with anti-CD16/32 (BioLegend, clone 93) for 20 min on ice. Samples were then incubated with appropriate antibodies for 30 min. on ice. The Foxp3 staining buffer set (eBioscience, Cat #00-5523-00) was applied for intracellular markers staining. For the intracellular cytokine analysis, cells were stimulated with Leukocyte Activation Cocktail (BD Biosciences, Cat #550583) at 37° C. for 5 hours prior to FACS staining. […] Flow cytometry was performed on an LSR II (BD Biosciences) or LSRFortessa™ HTS (BD Biosciences) at the DFCI flow cytometry core facility, and all the data were analyzed using FlowJo software.

PBM tumor tissues = assay: Gene Set Enrichment Analysis of PBM tumor tissues; assay type: in vivo, mouse; settings: 18 days of treatment, vs vehicle; panel of 4604 genes
Description: RNA was isolated from tumor samples as described above, sequenced on the ion Torrent platform per manufacturer's instructions using a custom AmpliSeq panel targeting 4604 murine genes relevant to our studies, and raw data was processed using the Torrent Suite and AmpliSeqRNA plugin to give read counts per gene. Differential gene expression analyses were carried out using DESeq2 with default parameters to obtain log 2 fold change (MAP) and adjusted p-values (Benjamini-Hochberg procedure) (Love et al. (2014) Genorme Biol. 15:550). Genes were ranked by log 2 fold change (MAP), and GSEA were carried out using the GSEAPreranked tool (Mootha et al. (2003) Nat. Genet. 34:267-273; Subramanian et al. (2005) Proc. Natl. Acad. Sci. USA 102:15545-15550). PCA were carried out using DESeq2.

PBM and PPM tumor cells = assay: Western blot of cGAS-STING signaling in tumor cells; assay type: cell-based, mouse
[1] = tested on: STING pathway in BMDCs co-cultured with PBM cells; assay: Co-culture of BMDCs with olaparib-treated PBM tumor cells; assay type: cell-based, mouse
Description: Blood was obtained by retro-orbital sampling at intermediate time points or experimental end points. Blood cells and plasma/sera were separated by centrifugation at 1,500×g for 5 min. at 4° C. Plasmaisera were sent out to Eve Technologies for cytokine array analysis (Chemokine Array 31-Plex and Mouse Procarta IFN 2-plex Featured Assay). Plasma/sera were applied to ELISA according to manufacturer's instructions. For in vitro experiments, cell culture supernatants were obtained by centrifugation at 1,500×g for 5 min. at 4° C. to remove all debris and cells, and were then subjected to ELISA analysis. IFN-β was detected using the LEGEND MAX™ Mouse IFN-β ELISA Kit (BioLegend).
Bone marrow cells were isolated from FVB/NJ mice and cultured in RPMI-1640 containing 10% FBS and 20 ng/ml GM-CSF. BMDCs (bone marrow derived dendritic cells) were harvested for in vitro co-culture assay on day 7 to day 10. About 3×10^5 PBM or PPM tumor cells were cultured in a 6-well plate for 24 hr. and then treated with DMSO or olaparib. After 24 hr incubation with DMSO, olaparib, or olaparib in combination with other drugs (cell cycle inhibitor or apoptosis inhibitor), drugs were removed and tumor cells were washed twice with PBS. BMDCs were added and co-cultured with PBM or PPM cells at a ratio of 1:1 in 1.5 ml culture media in the presence of GM-CSF (20 ng/ml) and lipofectamine (2 μl) for 24 hr. Co-cultured cells were harvested for flow cytometry analysis and floating cells (percentage of BMDCs is about 90%), or RNA analysis. Cell culture supernatants were collected for detection of IFN-β with the ELISA kit. BMDCs generated from C57BL/6J mice were applied for the coculture of BMDCs with ID8 tumor cells. Human dendritic cells purchased from Lonza were used for the coculture of human DCs with DMSO or olaparib-treated human ovarian cancer cells ([…] and UWB1.289+BRCA1).
About 50 to 100 mg of tumor samples were homogenized in 1 ml of TRIzol™ Reagent supplied with 200 μl of stainless steel beads and 0.2 ml of chloroform was added to the samples. Samples were vortexed vigorously for 15 seconds and then incubated at room temperature for 2 to 3 minutes. After centrifugation at 12,000×g for 15 minutes at 4° C., upper aqueous phase of the samples was carefully removed to a new tube and the total RNA was purified using an RNeasy® Mini Kit (Qiagen) according to manufactory's instruction. For the in vitro cultured cell samples, total RNA was isolated using an RNeasy® Mini Kit. The qPCR was performed on an Applied Biosystems 7300 machine after the total RNA was reverse transcribed to cDNA using the SuperScript® III First-Strand Synthesis System (Invitrogen). Primers used for qPCR were as follows: […]

SMILES: O=C(c1cc(Cc2n[nH]c(=O)c3ccccc23)ccc1F)N1CCN(C(=O)C2CC2)CC1 [olaparib, Olaparib]
- expression of immune-inhibitory ligand PD-L1 on tumor cells (PD-L1 on PBM tumor cells): highly enhanced expression; also recorded: significantly increased expression
- intratumoral immune responses in PPM tumor bearing mice (PPM tumor bearing mice): not found
- GSEA: expression of immune-related gene sets (PBM tumor tissues): markedly upregulated expression of genes associated with immune response, T-cell activation and interferon-γ (IFNγ) response
- STING signaling activity in tumor cells (PBM and PPM tumor cells): little STING signaling activity
- phosphorylation of TBK1 and IRF3 (p-TBK1+p-IRF3+) in BMDCs ([1]; co-cultured with olaparib-treated PBM cells vs DMSO): increased phosphorylation
- IFN-β and CXCL10 expression in BMDCs ([1]; co-cultured with olaparib-treated vs non-treated/DMSO PBM cells, mRNA and protein): Significantly enhanced expression; also recorded: markedly increased expression
